Measured values taken from patent US20070199084A1, “Ubiquitination of Membrane Transporters” (VANDERBILT UNIVERSITY, priority 2005, published 2007).
Residues, ends and D or L forms follow the SMILES beside them. *: point of attachment. Cbz = O=C(OCc1ccccc1)*

Tests used:
dopamine transporter = biological target: T1, dopamine transporter (Canis lupus familiaris, UniProt A0A8I3S5A0); conditions: cited from earlier work
T1 construct: digitonin-solubilized dopamine transporters from dog caudate nucleus; from tissue; host or cells: dog caudate nucleus, digitonin-solubilized extract
T1 sequence (A0A8I3S5A0 1-617): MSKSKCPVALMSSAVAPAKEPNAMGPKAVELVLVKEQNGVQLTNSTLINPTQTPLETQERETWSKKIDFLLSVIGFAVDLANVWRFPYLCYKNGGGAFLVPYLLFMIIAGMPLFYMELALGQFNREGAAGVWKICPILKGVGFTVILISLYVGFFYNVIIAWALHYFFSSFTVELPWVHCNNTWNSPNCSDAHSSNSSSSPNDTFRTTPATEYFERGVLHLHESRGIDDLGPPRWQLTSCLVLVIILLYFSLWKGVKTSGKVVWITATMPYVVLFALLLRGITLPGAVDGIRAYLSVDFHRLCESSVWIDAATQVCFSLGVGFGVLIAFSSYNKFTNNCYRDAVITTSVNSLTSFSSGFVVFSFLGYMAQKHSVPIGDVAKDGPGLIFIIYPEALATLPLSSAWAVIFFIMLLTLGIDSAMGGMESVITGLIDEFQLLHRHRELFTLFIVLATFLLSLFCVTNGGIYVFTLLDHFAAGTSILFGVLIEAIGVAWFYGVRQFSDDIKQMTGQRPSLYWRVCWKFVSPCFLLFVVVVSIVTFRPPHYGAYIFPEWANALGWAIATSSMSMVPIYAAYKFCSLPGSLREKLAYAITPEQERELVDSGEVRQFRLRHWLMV

CAD cells = experiment: Ponceau-S staining of the total membrane (other cellular proteins); conditions: desipramine treatment for 3 days
hNET = experiment: NE transport assay in CAD-his-hNET cells; type: cell-based, human; parameters: dose or concentration left out as unconfirmed; conditions: incubated 0, 1, 4 and 24 hrs prior to NE transport assay; triplicates
Procedure: FIG. 5A—Inhibition of proteasomes influence NET transport in cells. CAD-his-hNET cells in 24 well plates were incubated in MG132 ([…]) for 0, 1, 4 and 24 hrs prior to NE transport assay in triplicates.
Transport Assay. CAD-his-hNET cells in 24 well plates were incubated in MG132 ([…]) for 0, 1, 4 and 24 hrs prior to NE transport assay in triplicates. Protein Assay. CAD cells transfected with NET and Ub were preincubated with MG132 for 4 hrs prior to cell lysis and immunoblot with anti-NET for protein analysis.

NET [1] = biological target: T2, NET (Homo sapiens, UniProt P23975); experiment: NET proteins (total) by immunoblot with anti-NET in transfected CAD cells; type: cell-based; parameters: dose or concentration left out as unconfirmed; conditions: CAD cells transfected with NET and Ub; preincubated 4 hrs prior to lysis
T2 construct: expressed in transfected cells; host or cells: CAD cells (transient, co-transfected with HA-Ub)
T2 sequence (P23975 whole entry): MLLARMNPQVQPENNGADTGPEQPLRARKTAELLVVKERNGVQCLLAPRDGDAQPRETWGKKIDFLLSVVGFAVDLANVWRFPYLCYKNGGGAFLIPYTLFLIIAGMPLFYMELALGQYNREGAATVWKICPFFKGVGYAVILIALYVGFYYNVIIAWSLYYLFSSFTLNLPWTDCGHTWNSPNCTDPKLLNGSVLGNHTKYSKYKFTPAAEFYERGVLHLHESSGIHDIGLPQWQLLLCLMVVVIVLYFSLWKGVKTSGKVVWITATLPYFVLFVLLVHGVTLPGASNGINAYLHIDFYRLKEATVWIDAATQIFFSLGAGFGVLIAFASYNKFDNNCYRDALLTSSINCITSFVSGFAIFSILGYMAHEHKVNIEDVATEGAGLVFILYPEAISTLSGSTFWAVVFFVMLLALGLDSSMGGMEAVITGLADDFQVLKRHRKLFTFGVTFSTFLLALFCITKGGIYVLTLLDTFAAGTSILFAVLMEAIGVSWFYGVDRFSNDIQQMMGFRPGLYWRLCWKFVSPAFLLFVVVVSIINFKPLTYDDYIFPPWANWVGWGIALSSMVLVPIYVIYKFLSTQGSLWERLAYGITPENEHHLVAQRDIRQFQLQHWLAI
Procedure: (§1) Acute regulation of NET ubiquitination by PMA and methacholine (meth) was assessed. […] One mM PMA and 1 mM meth both increased ubiquitination of NET (FIG. 3). Chronic regulation of ubiquitination of NET was assessed in CAD cells transfected with NET and HA-Ub. […] FIGS. 5A-5B.

NET [2] = biological target: T2, NET; experiment: Ubiquitination of NET: IP with anti-HA (Ub), immunoblot with anti-NET, in transfected CAD cells; type: cell-based; conditions: CAD cells transfected with NET and HA-Ub; 1 mM, pre-incubated 30 min at 37° C. before IP; vs vehicle
Procedure: Prior to IP, cells were pre-incubated in media containing either vehicle (control), 1 mM PMA, or 1 mM methacholine (meth) for 30 min. PMA and methacholine increased ubiquitination of NET.
as §1

[3] = digitonin-solubilized extract of dog caudate

## COC(=O)C1C(OC(=O)c2ccccc2)CC2CCC1N2C (single isomer, unassigned; (+)) [(+)-cocaine]
Dopamine transporter; [3]
  inhibition of soluble [3H]WIN 35,428 binding (competition studies): weakly

## CNCCCN1c2ccccc2CCc2ccccc21 [Desipramine, desipramine]
CAD cells
  amounts of other cellular proteins (Ponceau-S stain of total membrane): no change
Dopamine transporter; [3]
  inhibition of soluble [3H]WIN 35,428 binding (competition studies): weakly

## CC(C)C[C@@H](C=O)NC(=O)[C@H](CC(C)C)NC(=O)[C@H](CC(C)C)NC(=O)OCc1ccccc1 [MG132] (Cbz-Leu-Leu-Leu-aldehyde)
hNET
  NET transport: increase
NET [1]
  NET protein concentration: increase

## CCCCCCCCCCCCCC(=O)O[C@@H]1[C@@H](C)[C@@]2(O)[C@@H](C=C(CO)C[C@]3(O)C(=O)C(C)=C[C@@H]23)[C@@H]2C(C)(C)[C@]12OC(C)=O [PMA]
NET [2]
  ubiquitination of NET (acute regulation): increased

## COC(=O)[C@H]1[C@@H](c2ccc(F)cc2)C[C@@H]2CC[C@H]1N2C [[^3H]WIN 35,428]
Dopamine transporter; digitonin-solubilized extract of dog caudate, read-out: Kd of binding
  Kd: 16 nM

## OC1(c2ccc(Cl)cc2)c2ccccc2C2=NCCN21 (stereo not shown) [mazindol]
Dopamine transporter; [3]
  inhibition of soluble [3H]WIN 35,428 binding (competition studies): strongly

## CC(=O)OC(C)C[N+](C)(C)C (stereo not shown) [meth, methacholine]
NET [2]
  ubiquitination of NET (acute regulation): increased

## (−)-cocaine
Dopamine transporter; competition against [3H]WIN 35,428
  potency compared to assays using [3H]GBR 12935: relatively more potent
